Data from the supplement of paper PMC10307832.

Key:
Assay in all cases: relative viability (nuclei count vs DMSO), 5 days (fraction); higher = more cells survive
[1] = compound: Nc1nc(Nc2ccc3c(c2)CC[C@@H](N2CCCC2)CC3)nn1-c1cc2c(nn1)-c1ccccc1CCC2 [Bemcentinib] + Cc1cc(Nc2cc(N3CCN(C)CC3)nc(Sc3ccc(NC(=O)C4CC4)cc3)n2)n[nH]1 [Tozasertib] (partner 0.1 µM)
Outline: (§1)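 Five library-drug doses in √10 steps were combined with a fixed anchor-drug dose, or a single drug was given alone, by pin tool to lung cancer cell lines in 1536-well plates the day after seeding. Nuclei were stained and counted after 5 days. Relative viability is the nuclei count in treated wells over that in vehicle wells, taken as the median of duplicate plates.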

[2] = compound: CNC(=O)c1ccccc1Sc1ccc2c(/C=C/c3ccccn3)n[nH]c2c1 [Axitinib] + NC(=O)Nc1cc(-c2cccc(F)c2)sc1C(=O)N[C@H]1CCCNC1 [AZD7762] (partner 0.2 µM)
Outline: as §1

[3] = compound: CC1=CC=C(C=C1)C(=O)CN2C3=C(CCCC3)SC2=N [Pifithrin_alpha] + NC(=O)Nc1cc(-c2cccc(F)c2)sc1C(=O)N[C@H]1CCCNC1 [AZD7762] (partner 0.2 µM)
Outline: as §1

[4] = compound: CC1=CC=C(C=C1)C(=O)CN2C3=C(CCCC3)SC2=N [Pifithrin_alpha] + O=C(CCCCCCC(=O)Nc1ccccc1)NO [Vorinostat] (partner 1 µM)
Outline: as §1

NCI-H650
relative viability ([1]; first compound 0.04 µM): 0.715
relative viability ([1]; first compound 0.1265 µM): 0.848
relative viability ([1]; first compound 0.4 µM): 0.798
relative viability ([1]; first compound 1.265 µM): 0.77
relative viability ([1]; first compound 4 µM): 0.718
relative viability ([2]; first compound 0.005 µM): 1.08
relative viability ([2]; first compound 0.01581 µM): 0.978
relative viability ([2]; first compound 0.05 µM): 1.08
relative viability ([2]; first compound 0.1581 µM): 1.11
relative viability ([2]; first compound 0.5 µM): 0.862
relative viability ([3]; first compound 3.162 µM): 1.08
relative viability ([3]; first compound 10 µM): 0.932
relative viability ([3]; first compound 31.62 µM): 0.718
relative viability ([3]; first compound 100 µM): 0.905
relative viability ([4]; first compound 3.162 µM): 0.439
relative viability ([4]; first compound 10 µM): 0.395
relative viability ([4]; first compound 31.62 µM): 0.305
relative viability ([4]; first compound 100 µM): 0.399
